# Measured values published in US20250127759A1, “METHODS AND DOSING REGIMENS COMPRISING A CDK2 INHIBITOR FOR THE TREATMENT OF CANCER” (PFIZER INC., priority 2021, published 2025).
# Columns and labels:
# [1] = Phase 1/2a study, safety profile; format: in vivo
# Source text: DLTs will be assessed through Cycle 1 (28-day cycle with Day 29 laboratory assessments). For the purpose of dose escalation, the DLT observation period will be during the first cycle (28 days after the start of study treatment) in each participant. Severity of AEs will be graded according to Common Terminology Criteria for Adverse Events (CTCAE) version 5.0.
# MCF7 cells [2] = assay: Cell cycle distribution and DNA synthesis, MCF7; format: cell-based; conditions: 72-hour treatment with 300 nM
# Description: (§1) The effect of PF-07104091 on cell cycle distribution and DNA synthesis was determined following 72-hour treatment with 300 nM PF-07104091.
# MCF7 Cells [3] = assay: Combination cell proliferation assay, MCF7; format: cell-based, human
# Description: (§2) The combination effects of PF-07104091 with palbociclib were evaluated in a cell proliferation assay with MCF7 and T47D BC cell lines. […] Drug combinations were analyzed using the Dose Equivalence Principle, and the Loewe Volume score. When modeling synergy using the Dose Equivalence Principle, the Loewe Volume score for the combination compounds should be greater than the compound self-cross controls, and the Combination Index score for the combination compounds should be less than compound self-cross controls. […] Furthermore, the isobolograms set to an anti-proliferation threshold at 70% confirm a synergistic response.
# NCI-H526 cells = assay: Cell cycle distribution and DNA synthesis, NCI-H526; format: cell-based; conditions: 72-hour treatment with 300 nM
# Description: as §1
# T-47D Cells = assay: Combination cell proliferation assay, T47D; format: cell-based, human
# Description: as §2
# ST941PBR PDX = assay: In vivo efficacy, palbociclib-resistant ST941PBR PDX model; conditions: Day 28, 150 mg/kg BID PO, 150 mg/kg
# Description: Female NSG mice (Jackson Lab) were subcutaneously implanted with fragment (27 mm^3 to 64 mm^3 size) into the dorsal region. All mice for T47D, HCC1428 and ST941 PBR studies were supplemented with 8.5 μg/mL estradiol water (β-Estradiol Sigma-Aldrich, cat #E2758-5G) and gave ad libitum till end of study. For the in vivo efficacy studies, tumor volume and body weights were measured twice a week. Tumor volume was calculated using the [(Length×Width×Width)/2)] formula. TGI was calculated as 100*(1−ΔT/ΔC). The ΔC (ΔT) was obtained by subtracting the mean tumor burden in the vehicle (treated) group on the first day of treatment (Day 0) from the mean tumor burden in vehicle (treated) group on the assessment day. Statistical analysis was performed using ANCOVA when the mean tumor volume in vehicle treated mice reached tumor cutoff size.
# The ST941 PBR palbociclib resistant model was obtained from XENOSTART™ LLC, San Antonio, Texas. We established model in house by continuous treatment of the ST941 PBR tumor bearing mice with PD-0332991 at 50 mg/kg, PO QD plus fulvestrant at 10 mg/kg, SC twice in the first week, then weekly thereafter. To propagate donors for the TGI study, tumors were transplanted to recipient mice. One week after the re-implantation, the recipient mice received continuous treatment with palbociclib plus fulvestrant (dosing schedule described above). After 1 to 2 serial in vivo propagation with the same treatment regimen, the resistant tumors in the range of 700 to 800 mm^3 were re-implanted for a study expansion. The remaining tumor fragments were viably frozen for future use.
# The live donor mice were established by implanting ST941 PBR (p11) tumor fragments. Once reaching a range of 700 to 800 mm^3, the donor tumors were subsequently transplanted into secondary recipient mice for a study expansion. To maintain the resistant clones, the ST941 PBR tumor bearing mice were treated with PD-0332991 at 50 mg/kg, PO. QD plus fulvestrant at 10 mg/kg, SC twice in the first week, then weekly afterwards for 10 weeks. […] TGI was assessed on Day 28 post first dose.
# MCF7 cells [4] = assay: Proliferation inhibition, MCF7; format: cell-based; conditions: Homo sapiens, 168 h, treated for 7 days
# Description: (§3) Anti-proliferative activity was measured in cells treated for 7 days with PF-07104091 in OVCAR3 cells, Rb mutant NCI-H526 SCLC cells, and both HR-positive HER2-negative MCF7 and the subline MCF7-PalboR (resistant to palbociclib).
# [5] = In vivo efficacy, OVCAR3 ovarian cancer tumor model; conditions: female, mouse, NSG mice, po, BID, read-out: maximum tolerated dose level
# Description: Female NSG (Jackson Lab) or Nu/nu (CRL) were subcutaneously implanted with tumor cells or fragments (8 mm^3 to 27 mm^3) into the dorsal region. For the MCF7 study, mice were supplemented with estrogen (sc implanted, 17β-estradiol, 0.36 mg, 90-day release pellet, Innovative Research of America, cat no. NE-121).
# To establish the OVCAR3 model, tumor cells (5×10^6 cells/mouse with 50% Cultrex® Basement Membrane Matrix) were subcutaneously implanted in female NSG mice. […] PF-07104091 was administered (p.o.) BID (7 hr apart). All mice received treatment continuously for 21 days. TGI was assessed on Day 21 post first dose (or Day 66 post tumor cell implant).
# [6] = system: phosphorylation of Rb at Ser807/811; assay: Modulation of pRb Ser807/811 in OVCAR3 cells; format: cell-based; conditions: Homo sapiens, OVCAR-3; enriched G1/S phase CCNE1-amplified OVCAR3 cells; mean; read-out: Modulation of pRB Serine 807/811 IC50
# Description: The cellular activity of PF-07104091 was evaluated by measuring phosphorylation of Rb at Ser807/811 following treatment of enriched G1/S phase CCNE1-amplified OVCAR3 ovarian carcinoma cells.
# [7] = system: MCF7-PalboR (resistant to palbociclib); assay: Proliferation inhibition, MCF7-PalboR; format: cell-based; conditions: 168 h, read-out: Proliferation Inhibition IC50
# Description: as §3
# The MCF7-PalboR cell model is refractory to palbociclib-induced proliferative inhibition at doses up to […], which exceeds the concentration expected to inhibit CDK4 and CDK6.
# [8] = Nonclinical toxicity study, mouse; format: in vivo
# Description: The selection of the starting dose and regimen was based on the nonclinical toxicology and PK results in accordance with the ICH S9 Guidance. Results from nonclinical toxicity studies indicate the STD10 of PF-07104091 in mouse was 150 mg/kg after BID oral administration. The human equivalent dose for the STD10 in mouse is approximately 729 mg BID (assuming a body weight of 60 kg). Per ICH-S9 guidance, one-tenth of the STD10 can be considered the appropriate starting dose. Given the predicted human t % of approximately 4 hours, the starting dose has been selected to be 75 mg BID. The human AUC0-12 hr of PF-07104091 at the proposed starting oral dose of 75 mg BID is predicted to be ˜6.5% of the observed AUC0-12 hr at the STD10 in mouse (150 mg/kg BID) and ˜80% of the observed AUC0-12 hr at the HNSTD in dog (15 mg/kg BID).
# MCF7-PalboR cells = assay: Cell cycle distribution and DNA synthesis, MCF7-PalboR; format: cell-based; conditions: 72-hour treatment with 300 nM
# Description: as §1
# HCC1428 = assay: In vivo efficacy, HCC1428 breast cancer model; parameters: species or system mice; conditions: Day 42, 150 mg/kg BID PO, 150 mg/kg
# Description: The HCC1428 model was established by implanting passage 4 tumor fragments into recipient mice. To establish the HCC1428 donor mice, tumor cells (5×10^6 cell/mouse with 50% Cultrex® Basement Membrane Matrix) were subcutaneously implanted in female NSG mice. […] All mice received treatment continuously until Day 42. TGI was assessed on Day 42 post first dose.
# [9] = 75 mg to 500 mg BID, all cohorts, as of data cutoff
compound,measurement,setting,value
"COCc1cc(C(=O)Nc2cc([C@H]3CC[C@@H](OC(=O)NC(C)C)C3)[nH]n2)n(C)n1 [PF-07104091, (1R,3S)-3-[3-({[3-(methoxymethyl)-1-methyl-1H-pyrazol-5-yl]carbonyl}amino)-1H-pyrazol-5-yl]cyclopentyl propan-2-ylcarbamate]",DLTs related to PF-07104091 (number),[1]; [9],15
same,SAEs related to PF-07104091 (number),[1]; [9],21
same,deaths related to PF-07104091,[1]; [9],no deaths
same,patients with at least one all-causality TEAE,"[1]; 70 out of 77 patients, across all doses",90.9%
same,Grade 5 all-causality TEAEs (number),[1]; Dyspnoea at the 225 mg BID (Part A) dose,One
same,Grade 3 or higher all-causality TEAE: anaemia,[1]; across all doses,6.5%
same,Grade 3 or higher all-causality TEAE: fatigue,[1]; across all doses,10.4%
same,Grade 3 or higher all-causality TEAE: hypokalaemia,[1]; across all doses,5.2%
same,Grade 3 or higher all-causality TEAE: nausea,[1]; across all doses,7.8%
same,Grade 3 or higher all-causality TEAE: neutrophil count decreased,[1]; across all doses,23.4%
same,Grade 3 or higher all-causality TEAE: white blood cell count decreased,[1]; across all doses,14.3%
same,all-causality TEAEs Grade 3 or higher,[1]; across all doses,49.4%
same,all-causality TEAE: anaemia,"[1]; across all doses, 77 patients",31.2%
same,all-causality TEAE: decreased appetite,"[1]; across all doses, 77 patients",20.8%
same,all-causality TEAE: diarrhoea,"[1]; across all doses, 77 patients",37.7%
same,all-causality TEAE: fatigue,"[1]; across all doses, 77 patients",41.6%
same,all-causality TEAE: nausea,"[1]; across all doses, 77 patients",68.8%
same,all-causality TEAE: neutrophil count decreased,"[1]; across all doses, 77 patients",32.5%
same,all-causality TEAE: vomiting,"[1]; across all doses, 77 patients",37.7%
same,all-causality TEAE: white blood cell count decreased,"[1]; across all doses, 77 patients",23.4%
same,patients who discontinued study treatment due to AEs,"[1]; all cohorts, as of data cutoff",4 patients
same,Grade 4 all-causality TEAE (number),"[1]; neutrophil count decreased 500 mg BID (1A) and 75 mg BID (3/1) (1B), platelet count decreased 150 mg BID (1B), neutropenia 75 mg BID (1C)",Four
same,cell cycle arrest,MCF7 cells [2],significant G2/M arrest
same,S phase (cell cycle distribution),MCF7 cells [2]; p≤0.05 versus vehicle,Significant S phase reduction
same,Loewe Volume,MCF7 Cells [3],−0.08
same,Best CI,MCF7 Cells [3]; Best CI Level 70,1.04
same,cell cycle arrest,NCI-H526 cells,significant G2/M arrest
same,S phase (cell cycle distribution),NCI-H526 cells; p=0.057,trended towards significance
same,Loewe Volume,T-47D Cells,0.01
same,Best CI,T-47D Cells; Best CI Level 70,0.95
same,TGI %,ST941PBR PDX,34%
same,IC50,MCF7 cells [4],252 nM
same,MTD at 21 days,[5],175 mg/kg
same,IC50,[6],144 nM
same,IC50,[7],680 nM
same,human equivalent dose for the STD10 in mouse,[8]; assuming a body weight of 60 kg,approximately 729 mg BID
same,STD10,"[8]; mouse, BID oral administration",150 mg/kg
same,cell cycle arrest,MCF7-PalboR cells,significant G2/M arrest
same,S phase (cell cycle distribution),MCF7-PalboR cells; p≤0.05 versus vehicle,Significant S phase reduction
same,TGI %,HCC1428,95%
